Results as given in ChEMBL document CHEMBL1121942, “Sparsophenicol: a new synthetic hybrid antibiotic inhibiting ribosomal peptide synthesis” (J Med Chem, 1982).

Legend:
Escherichia coli [1] = test: Tested for the inhibitory activity against N-acetyl-L-phenylalanyl tRNA-70S Escherichia coli ribosome poly-U complex; format: functional, organism-based
Escherichia coli [2] = test: Tested for the percent inhibition against N-acetyl-L-phenylalanyl tRNA-70S Escherichia coli ribosome poly-U complex at 3.8*10e-4M concentration; format: functional

SMILES	Ki (Escherichia coli [1]) [µM]	Inhibition (Escherichia coli [2]) [%]
Cc1nc(O)nc(O)c1/C=C/C(=O)NC(CO)C(O)c1ccc([N+](=O)[O-])cc1 (centres undefined)	3	–
COc1ccc(C[C@H](N)C(=O)N[C@H]2[C@@H](O)[C@H](n3cnc4c(N(C)C)ncnc43)O[C@@H]2CO)cc1 [PUROMYCIN]	220	–
Cc1nc(O)nc(O)c1/C=C/C(=O)N(C)C	350	–
Cc1nc(O)nc(O)c1/C=C/C(=O)ON1C(=O)CCCC1=O	–	20
